Like-named read-outs stand apart in the source and are kept apart here.
Legend:
[1] = tested on: neuropathic pain; conditions: Knabl et al., 2008, cited from earlier work; for analgesic effect after repeated administration (tolerance): once per day for nine days
[2] = tested on: Formalin Pain (mouse, i.p.); experiment: T22 formalin test (chemically induced pain); type: in vivo
Description: This elicits a distinct bi-phasic behavioral profile in response to the formalin injection characterized by licking of the affected paw, and the number of licks is measured as a proxy for perceived pain. The first (acute) phase is thought to correspond to the direct stimulation of peripheral fibers while the second (inflammatory) phase is caused by the release of inflammatory mediators from the damaged tissue and nerve endings. Thus, this model is ideally suited for efficacy of an investigational AED against the acute and chronic hyper-responsive neuronal discharges following activation of peripheral nerve fibers.
The results of the formalin test are given both as raw data (“Response”) and in an aggregate, analyzed form (“Analysis”). In the Response section, each Trial involves sixteen animals, eight controls given an i.p. injection of vehicle and eight given the compound at a specified dose. Thus, for multiple doses of the compound, there will also be multiple control groups. The data recorded for each animal is the amount of time(s) spent licking the affected hind paw in a two minute period. These two minute periods occur at five minute intervals and continue for 45 minutes. […] From this plot, we can then determine the area under the curve (AUC) for each animal during both the acute and inflammatory stages. The AUC for each phase is shown in the analysis section of the data sheet for both control and drug-treated animals The AUC for each drug-treated animal is compared to the average result from the control group, yielding an average percent of control (reported with the SEM and p value).

[3] = tested on: GABAA receptors of superficial dorsal horn neurons; experiment: whole-cell patch-clamp of GABA-induced currents in spinal cord slices; type: cell-based, mice; conditions: diazepam 1 μM
Description: Electrophysiology of Spinal Cord Slices. […] GABAergic membrane currents are recorded from superficial dorsal horn neurons (laminae I and II) as described previously. […] GABA-induced currents are recorded from capsaicin sensitive DRG neurons 3-30 h after plating. Whole-cell patch-clamp recordings are performed from neurons identified under visual control using the infrared gradient contrast technique coupled to a video microscopy system. In both preparations, GABA (1 mM) is applied to the some of the recorded neuron via a glass pipette by short (10 ms) electronically controlled puffer applications at a frequency of 0.07 Hz.
Spinal cord GABAA receptors: Whole-cell patch-clamp electrophysiology recordings are performed in spinal cord slices of GABAA receptor mutant mice and of corresponding wt mice. […] GABA-induced membrane currents are evoked by external application of GABA (3 mM) to neurons located in the superficial layers (lamina I and II) of the spinal cord dorsal horn.

[4] = tested on: rhesus monkeys; experiment: conflict model of anxiolytic activity which also measures sedation; type: in vivo; conditions: intravenously in propylene glycol/water
Description: The data in FIGS. 21A-21F reflect the ability of the compounds or drugs to exert an anxioyic effect in rhesus monkeys (J. Rowlett, J. M. Cook et al., unpublished results) when given intravenously in propylene glycol/water solution. This is the conflict model of anxiolytic activity which also measures sedation. […] In FIG. 21B, SH-053-2′F (JY-XHE-053) is anxiolytic at a dose of greater than 0.13 mg/kg, but exerts only some slight sedation at doses greater than 1.2 mg/kg (responses decrease). In FIG. 21C it is clear the S-enantiomer of SH-053-2′F—S—CH3 is anxiolytic with no sedation up to 10-18 mg/kg, which is the highest dose tested.

[5] = tested on: locomotor activity of mice; experiment: spontaneous locomotor activity (activity cage); type: in vivo; conditions: i.p.
Description: Locomotor activity: Spontaneous locomotor activity was tested using a commercially available microprocessor equipped activity cage (actiframe, Gerb Elektronik). Mice were placed in the activity cage 15 min before testing. Locomotor activity was measured for 1 h after intraperitoneal administration of vehicle, gabapentin or HZ166 during the early light phase of the day-night cycle.

[6] = tested on: neuropathic pain after CCI of the sciatic nerve; experiment: chronic constriction injury (CCI) model, mechanical sensitization (von Frey filaments); type: in vivo, mice
Description: In addition, the pro- or antinociceptive effects of the compounds of the present invention are analyzed in the chronic constriction injury (CCI) model. The GABAA receptor subunit selective test compounds of the present invention are analysed in the CCI model in 7-8-week-old C57BL/6 mice. See Bennett, G. J. & Xie, Y. K. A peripheral mononeuropathy in rat that produces disorders of pain sensation like those seen in man. […] Seven to eight week old mice are anesthetized with isofluran. Unilateral constriction injury of the left sciatic nerve just proximal to the trifurcation is performed with three loose ligatures. In sham-operated animals the sciatic nerve is exposed and the connective tissue is freed, but no ligatures are applied. […] Heat hyperalgesia, cold allodynia and mechanical sensitization are assessed 7-9 days after surgery. Mechanical sensitivity is assessed with electronic von Frey filaments (IITC).
Pain studies—Neuropathic pain: HZ166 and gabapentin were analyzed in the chronic constriction injury (CCI) model. Unilateral constriction injury of the left sciatic nerve just proximal to the trifurcation was performed as described previously (Bennett and Xie, 1988). Anesthesia was induced and maintained by 2% isoflurane, combined with oxygen (30%). The sciatic nerve was exposed at the mid-thigh level proximal to the sciatic trifurcation by blunt dissection through the biceps femoris muscle. […] of nerve were freed of adhering tissue and three chromic gut ligatures (4/0) (Ethicon) were loosely put around the nerve with about 1 mm spacing. The ligatures were tied until they elicited a brief twitch in the hindlimb. The surgical wound was closed in layers. Heat hyperalgesia and mechanical sensitization were assessed 7-16 days after surgery.
Pain Studies—Mechanical sensitization: Mechanical sensitivity was assessed with dynamic von Frey filaments (IITC, Woodland Hills, Calif.). 4-5 measurements were made for each time point and animal and averaged. Measurements of paw withdrawal thresholds of the injured paw and of the contralateral paw were made alternately.
Statistical Analysis: For all different doses and vehicle, baseline paw withdrawal thresholds/latencies on day 7 after nerve ligation or on day 2 after zymosan A injection were subtracted from all later withdrawal thresholds and the area under the curve (AUC) was calculated. Drug effects were expressed as percent maximum possible effect (MPE) calculated from comparisons of paw withdrawal latencies or thresholds obtained prior to surgery or inflammation and before and after drug treatment. […] Unless otherwise indicated, statistical comparisons were made with one-way analysis of variance (ANOVA) followed by Scheffe's post hoc test. P values<0.05 were considered significant.

[7] = tested on: motor coordination of mice; experiment: rotarod test (motor impairment); type: in vivo; conditions: HZ166 16 and 48 mg/kg, gabapentin 10 and 30 mg/kg, i.p., 60 min after treatment
Description: Motor impairment: A possible impairment of motor function was analyzed in the rotarod test. Mice were trained on the rotarod (diameter 3 cm, 2 rpm) for 2 days. Animals capable of remaining on the rotarod in the absence of treatment for at least 2 min were selected for drug testing. On the test day, the latency to fall off the rod was recorded before and 60 minutes after treatment with vehicle, HZ166 or gabapentin.

[8] = target: T1, GABAA/α1 (α1β3γ2 GABAA receptor) (Homo sapiens, UniProt P14867+P18507); experiment: competitive binding assay with [3H]flunitrazepam
T1 construct: expressed in transfected cells
Description: (§1) Membranes were harvested with a Brandel cell harvester followed by three ice-cold washes onto polyethyleneimine-pretreated (0.3%) Whatman GF/C filters. Filters were dried overnight and then soaked in Ecoscint, a liquid scintillation cocktail (National Diagnostics; Atlanta, Ga.). Bound radioactivity was quantified by liquid scintillation counting. Membrane protein concentrations were determined using an assay kit from Bio-Rad (Hercules, Calif.) with bovine serum albumin as the standard.
as §1, with “The GABAA subunit selectivity of several compounds prepared as described above were determined using competitive binding assays. […] Membranes” for “Membranes”

[9] = target: T2, GABAA/α2 (α2β3γ2 GABAA receptor) (Homo sapiens, UniProt P18507+P47869); experiment: competitive binding assay with [3H]flunitrazepam
T2 construct: expressed in transfected cells
Description: as §1
as §1, with “The GABAA subunit selectivity of several compounds prepared as described above were determined using competitive binding assays. […] Membranes” for “Membranes”

[10] = target: T3, GABAA/α3 (α3β3γ2 GABAA receptor) (Homo sapiens, UniProt P18507+P34903); experiment: competitive binding assay with [3H]flunitrazepam
T3 construct: expressed in transfected cells
Description: as §1
as §1, with “The GABAA subunit selectivity of several compounds prepared as described above were determined using competitive binding assays. […] Membranes” for “Membranes”

[11] = target: T4, GABAA/α6 (α6β3γ2 GABAA receptor) (Homo sapiens, UniProt P18507+Q16445); experiment: competitive binding assay with [3H]flunitrazepam
T4 construct: expressed in transfected cells
Description: as §1
as §1, with “The GABAA subunit selectivity of several compounds prepared as described above were determined using competitive binding assays. […] Membranes” for “Membranes”

[12] = target: T5, GABAA/α5 (α5β3γ2 GABAA receptor) (Homo sapiens, UniProt P18507+P31644); experiment: competitive binding assay with [3H]flunitrazepam
T5 construct: expressed in transfected cells
Description: as §1
as §1, with “The GABAA subunit selectivity of several compounds prepared as described above were determined using competitive binding assays. […] Membranes” for “Membranes”

[13] = tested on: Sciatic Ligation neuropathic pain; experiment: T23 partial ligation of the sciatic nerve (mechanical allodynia); type: in vivo, rats
Description: Neuropathic pain. The pro- or antinociceptive effects of the compounds of the present invention are analyzed in two manners. […] Sterile technique will be used throughout the surgery. The upper thigh will be shaved and wiped off with ethanol and betadine. A small incision will then be made in the skin. The underlying muscle of the upper thigh will be separated and the sciatic nerve exposed. The nerve is separated from the surrounding connective tissue and slightly elevated by a pair of fine, curved forceps. Approximately ⅓ to ½ of the nerve is tied off by passing a needle (7.0) and nylon suture through the nerve. The muscle and skin incision are closed off separately with 5.0 suture and the animals kept warm until they have recovered from the anesthesia. This procedure is routinely done on the right side (ipsilateral) while a sham surgery is performed on the left hind leg (contralateral). The latter involves a similar procedure with the exception that the sciatic nerve on this side is only exposed. The rats will be closely monitored daily for the development of infection or untoward effects of the surgery in which case the animals will be immediately euthanized
After an appropriate time for recovery (7 days) the animals will be tested for the development of mechanical allodynia (abnormal response to a non-noxious stimulus). The animals are each put in a bottomless plexiglass box placed on a wire mesh (¼″) platform. After 30-60 minutes in which to acclimate, a baseline mechanical sensitivity is determined. This procedure is done by applying a series of calibrated Von Frey fibres perpendicularly to the plantar surface of each hind paw and holding it there for about 6 secs with enough force to slightly bend the fibre. After a positive response (withdrawal of the foot) is noted a weaker fibre is applied. This is repeated until a 50% threshold for withdrawal can be determined
The allodynic threshold is then redetermined after intraperitoneal administration of an investigational AED. Testing will be conducted at the time-to-peak effect of the AED as determined in the acute seizure model.

[14] = Binding Affinity at GABAA/α1, Table 3
[15] = Binding Affinity at GABAA/α2, Table 3
[16] = Binding Affinity at GABAA/α3, Table 3
[17] = Binding Affinity at GABAA/α5, Table 3
[18] = dose 35.5 (HZ-166), 18 (JY-XHE-053), 1 (XLI-JY-DMH) mg/kg, TPE 2 hr

Cn1ncnc1COc1nn2c(-c3cc(F)ccc3F)nnc2cc1C(C)(C)C [L-838,417]
antihyperalgesic activity in a rat neuropathic pain model [1]: good antihyperalgesic activity
analgesic effect after repeated administration (tolerance) [1]: did not diminish

CN1C(=O)CN=C(c2ccccc2)c2cc(Cl)ccc21 [Diazepam, diazepam]
level of pain response ([2]; mouse formalin test and model of sciatic nerve ligation): strongly reduced
potentiation of GABA induced currents ([3]; wild-type mice, mean±SEM, n=11): 150.1±7.54%
potentiation of GABA induced currents ([3]; α1 mutant mice): 165±22.3%
potentiation of GABA induced currents ([3]; α2 mutant mice): 106.9±3.6%
potentiation of GABA induced currents ([3]; α3 mutant mice): 102.5±6.6%
potentiation of GABA induced currents ([3]; α5 mutant mice): 126±13.0%
anxiolytic effect (conflict model) [4]: anxiolytic

NCC1(CC(=O)O)CCCCC1 [gabapentin, reference compound]
dose at which sedative effects were observed [5]: 30 mg/kg
doses with significant reduction in locomotor activity [5]: ≥ 30 mg/kg
reversal of mechanical hypersensitivity ([6]; i.p., CCI model): dose-dependent reversal
maximum antihyperalgesic effect (efficacy) compared with HZ166 ([6]; reached only with sedative doses): higher
interfered with rotarod performance [7]: Neither

CCOC(=O)c1ncn2c1CN=C(c1ccccc1)c1cc(I)ccc1-2 [HZ 120, Ethyl 8-iodo-6-phenyl-4H-benzo[f]imidazo[1,5-a][1,4]diazepine-3-carboxylate]
Ki [8, 14]: > 5000 nM
Ki [9, 15]: 35 nM
Ki [10, 16]: 78.5 nM
Ki [11]: 32.2 nM
Ki [12, 17]: 20.6 nM

CN1CC[C@]23c4c5ccc(O)c4O[C@H]2[C@@H](O)C=C[C@H]3[C@H]1C5 [morphine]
analgesic effect after repeated administration (tolerance) [1]: complete tolerance

C#Cc1ccc2c(c1)C(c1ccccc1)=NCc1c(-c3nc(CC)no3)ncn1-2 [PS-I-26]
Ki [8, 14]: 933 nM
Ki [9, 15]: 366 nM
Ki [10, 16]: 260 nM
Ki [11]: > 5000 nM
Ki [12, 17]: 394 nM

C#Cc1ccc2c(c1)C(c1ccccc1Cl)=NCc1nnc(C)n1-2 [XLI-JY-DMH, 8-Acetyleno-5-(2′-chlorophenyl)-1-methyl-4H-s-triazolo-[4,3-a]-1,4-benzodiazepine]
Ki ([8]; Table 3, read-out: Binding Affinity at GABAA/α1): 3.3 nM
Ki ([9]; Table 3, read-out: Binding Affinity at GABAA/α2): 0.58 nM
Ki ([10]; Table 3, read-out: Binding Affinity at GABAA/α3): 1.9 nM
Ki ([11]; Table 3, read-out: Binding Affinity at GABAA/α6): > 5000 nM
Ki ([12]; Table 3, read-out: Binding Affinity at GABAA/α5): 4.4 nM
protection against neuropathic pain caused by sciatic ligation ([13]; T23 sciatic ligation): insignificant
Change (% of Control) ± SEM, T23 Sciatic Ligation [13, 18]: 136 % of Control
Significance, T23 Sciatic Ligation [13, 18]: no
protection at the acute phase of chemically induced pain ([2]; formalin test, acute phase): insignificant
Change (% of Control) ± SEM, T22 Formalin Pain, Acute ([2]; mouse, i.p., acute phase, dose 16 (HZ-166), 10 (JY-XHE-053), 1 (XLI-JY-DMH) mg/kg): 87.6 % of Control
Change (% of Control) ± SEM, T22 Formalin Pain, inflammatory ([2]; mouse, i.p., inflammatory phase, dose 16 (HZ-166), 10 (JY-XHE-053), 1 (XLI-JY-DMH) mg/kg): 111.9 % of Control
analgesic effects in the chronic constriction injury model of neuropathic pain ([6]; mouse, in vivo): analgesic effects
